Data reported in patent US20260176289A1, “SMALL MOLECULE INHIBITORS OF KRAS PROTEINS” (Merck Sharp & Dohme LLC, priority 2022, published 2026).

Key:
[1] = target: T1, KRAS G12C (amino acids 1-169) (Homo sapiens, UniProt P01116, G12C); experiment: SOS-catalyzed nucleotide exchange assay (Procedure B, BODIPY FL GDP displacement), KRAS G12C; format: biochemical; conditions: read-out: KRAS G12C GNE IC50
T1 construct: made in house; host or cells: E. coli
Method: (§1) Procedure for SOS-Catalyzed Nucleotide Exchange Assay for KRAS-G12C/D/V/WT (Procedure B)
(§2) Recombinant KRAS G12C (amino acids 1-169, SEQ ID NO:9), KRAS G12D (amino acids 1-169, SEQ ID NO: 10), KRAS G12V (amino acids 1-169, SEQ ID NO: 11), KRAS WT (amino acids 1-169, SEQ ID NO:12) and SOS1 (amino acids 564-1049, SEQ ID NO: 13) proteins were expressed in E. coli and purified by affinity chromatography. To prepare each BODIPY™ FL GDP-bound KRAS protein, 50 μM KRAS proteins were incubated with 0.5 mM BODIPY™ FL GDP (Invitrogen, G22360) in a loading buffer (20 mM Tris-HCl pH 7.5, 50 mM NaCl, 1 mM DTT and 2.5 mM EDTA) for 1 hour on ice. After the incubation, MgCl2 was added to a final concentration of 10 mM, followed by an incubation at room temperature for 30 minutes. The mixtures were allowed to pass through a NAP-5 column to remove free nucleotides and purified BODIPY™ FL GDP-bound KRAS G12C, G12D, G12V and WT proteins were used for compound evaluation.
(§3) The inhibitory activity of compounds on recombinant KRAS is measured by the displacement of the bound BODIPY™ GDP. Specifically, 2.5 nM of each BODIPY™ FL GDP-bound KRAS complex was incubated with various concentrations of compound in a reaction buffer (20 mM Tris-HCl pH 7.5, 100 mM NaCl, 1 mM MgCl2, 2 mM DTT, 0.1% Tween 20) at 25° C. for 1 hour. After the incubation, recombinant SOS1 and GMPPNP (Jena Bioscience GmbH, NU-401) were added and incubated at room temperature for 30 minutes to proceed SOS1-dependent GDP-GTP exchange reaction on KRAS. Displacement of BODIPY™ FL GDP by Guanosine-5′-[(β,γ)-imido]triphosphate, Tetralithium salt (GMPPNP) was measured by calculating the ratio of fluorescence intensities of BODIPY™ FL before and after the exchange reaction. Percent Inhibition was calculated by setting the fluorescence ratio from the reaction without test compound (DMSO control) and the fluorescence ratio from the reaction without SOS1 and GMPPNP as 0% and 100% inhibition, respectively. Dose response curves were analyzed using a 4-parameter logistic model to calculate IC50 values.

[2] = target: T2, KRAS G12D (amino acids 1-169) (Homo sapiens, UniProt P01116, G12D); experiment: SOS-catalyzed nucleotide exchange assay (Procedure B, BODIPY FL GDP displacement), KRAS G12D; format: biochemical; conditions: read-out: KRAS G12D GNE IC50
T2 construct: made in house; host or cells: E. coli
Method: as §1, §2, §3

[3] = target: T3, KRAS G12V (amino acids 1-169) (Homo sapiens, UniProt P01116, G12V); experiment: SOS-catalyzed nucleotide exchange assay (Procedure B, BODIPY FL GDP displacement), KRAS G12V; format: biochemical; conditions: read-out: KRAS G12V GNE IC50
T3 construct: made in house; host or cells: E. coli
Method: as §1, §2, §3

[4] = target: T4, KRAS WT (amino acids 1-169) (Homo sapiens, UniProt P01116); experiment: SOS-catalyzed nucleotide exchange assay (Procedure B, BODIPY FL GDP displacement), KRAS WT; format: biochemical; conditions: read-out: KRAS WT GNE IC50
T4 construct: made in house; host or cells: E. coli
Method: as §1, §2, §3

KRAS-WT = KRAS-WT (Homo sapiens, UniProt P01116); experiment: SOS-catalyzed nucleotide exchange assay (Procedure A, TR-FRET), KRAS-WT; format: biochemical; conditions: nucleotide exchange, read-out: KRAS WT GNE IC50
Outline: (§4)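 Signal ratio (520/495 nm, excitation 340 nm) reports Bodipy-GDP retention on biotinylated RAS after SOS-catalyzed exchange with 3 mM GTP. SOS was 40 nM, except 160 nM for G12V. Room-temperature exchange lasted 60 min (90 min for G12V), following a 60 min compound preincubation.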

[5] = target: KRAS-G12C (C51S/C80L/C118S) (Homo sapiens, UniProt P01116, C118S/C51S/C80L/G12C); experiment: SOS-catalyzed nucleotide exchange assay (Procedure A, TR-FRET), KRAS-G12C; format: biochemical; conditions: nucleotide exchange, Procedure A; read-out: KRAS G12C GNE IC50
Outline: as §4

KRAS-G12D = KRAS-G12D (Homo sapiens, UniProt P01116, G12D); experiment: SOS-catalyzed nucleotide exchange assay (Procedure A, TR-FRET), KRAS-G12D; format: biochemical; conditions: nucleotide exchange, read-out: KRAS G12D GNE IC50
Outline: as §4

KRAS-G12V = KRAS-G12V (Homo sapiens, UniProt P01116, G12V); experiment: SOS-catalyzed nucleotide exchange assay (Procedure A, TR-FRET), KRAS-G12V; format: biochemical; conditions: nucleotide exchange, read-out: KRAS G12V GNE IC50
Outline: as §4

KRAS-G13D = KRAS-G13D (Homo sapiens, UniProt P01116, G13D); experiment: SOS-catalyzed nucleotide exchange assay (Procedure A, TR-FRET), KRAS-G13D; format: biochemical; conditions: nucleotide exchange, Procedure A; read-out: KRAS G13D GNE IC50
MKN-1 cells = experiment: Cellular phospho-ERK assay, MKN-1 cells (amplified wild-type KRAS); format: cell-based; conditions: Homo sapiens, amplified wild-type KRAS, 2 hours, read-out: MKN1 pERK IC50
Outline: (§5)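 Readout: p-ERK/total ERK ratio measured by Alpha SureFire Ultra multiplex in lysates after 2 h compound exposure (37 °C, 5% CO2). Dosing ran 10 points, 1:3 dilutions, highest final concentration 30 μM. IC50 values derived by four-parameter logistic regression.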

PANC08.13 cells = experiment: Cellular phospho-ERK assay, PANC08.13 cells (homozygous KRAS-G12D); format: cell-based; conditions: Homo sapiens, PANC-08-13, KRAS-G12D, 2 hours, read-out: PANC-08.13 pERK IC50
Outline: as §5

AsPC-1 cells = experiment: Cellular phospho-ERK assay, AsPC-1 cells (homozygous KRAS-G12D); format: cell-based; conditions: Homo sapiens, ASPC1, 2 h, KRAS-G12D, 2 hours, read-out: AsPC1 pERK IC50
Outline: as §5

SW620 cells = experiment: Cellular phospho-ERK assay, SW620 cells (homozygous KRAS-G12V); format: cell-based; conditions: Homo sapiens, SW-620, KRAS-G12V, 2 hours, read-out: SW620 pERK IC50
Outline: as §5

Sequence of KRAS-G12D (P01116 with tags, fused parts or gaps isoform P01116-2 G12D): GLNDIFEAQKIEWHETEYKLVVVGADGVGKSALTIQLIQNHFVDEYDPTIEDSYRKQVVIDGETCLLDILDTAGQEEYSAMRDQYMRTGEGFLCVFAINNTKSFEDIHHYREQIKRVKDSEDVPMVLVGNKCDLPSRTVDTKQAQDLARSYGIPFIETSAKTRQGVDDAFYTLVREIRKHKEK
Sequence of KRAS-G12V (P01116 with tags, fused parts or gaps isoform P01116-2 G12V): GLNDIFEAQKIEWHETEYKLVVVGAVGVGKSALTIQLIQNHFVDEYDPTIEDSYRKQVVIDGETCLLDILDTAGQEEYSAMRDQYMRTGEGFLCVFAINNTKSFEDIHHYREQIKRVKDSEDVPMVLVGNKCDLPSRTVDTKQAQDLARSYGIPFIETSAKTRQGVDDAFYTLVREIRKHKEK
Sequence of KRAS-G13D (P01116 with tags, fused parts or gaps isoform P01116-2 G13D): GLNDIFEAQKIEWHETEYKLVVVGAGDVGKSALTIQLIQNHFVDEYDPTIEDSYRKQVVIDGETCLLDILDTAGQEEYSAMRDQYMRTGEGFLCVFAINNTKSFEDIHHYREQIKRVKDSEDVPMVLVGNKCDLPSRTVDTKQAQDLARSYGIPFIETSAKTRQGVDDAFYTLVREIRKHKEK
Sequence of KRAS-WT (P01116 with tags, fused parts or gaps isoform P01116-2): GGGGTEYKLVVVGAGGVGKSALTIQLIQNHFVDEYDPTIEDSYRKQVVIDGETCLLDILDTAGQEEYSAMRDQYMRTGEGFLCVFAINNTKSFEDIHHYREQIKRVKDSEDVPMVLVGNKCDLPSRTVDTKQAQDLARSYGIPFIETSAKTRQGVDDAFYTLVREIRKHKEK
Sequence of KRAS-G12C (C51S/C80L/C118S) (P01116 with tags, fused parts or gaps isoform P01116-2 G12C/C51S/C80L/C118S): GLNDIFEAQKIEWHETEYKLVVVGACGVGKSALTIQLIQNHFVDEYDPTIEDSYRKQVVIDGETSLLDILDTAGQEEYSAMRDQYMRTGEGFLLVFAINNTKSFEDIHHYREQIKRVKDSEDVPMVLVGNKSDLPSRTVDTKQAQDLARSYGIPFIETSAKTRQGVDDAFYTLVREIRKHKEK
T1 sequence (P01116 with tags, fused parts or gaps isoform P01116-2 G12C): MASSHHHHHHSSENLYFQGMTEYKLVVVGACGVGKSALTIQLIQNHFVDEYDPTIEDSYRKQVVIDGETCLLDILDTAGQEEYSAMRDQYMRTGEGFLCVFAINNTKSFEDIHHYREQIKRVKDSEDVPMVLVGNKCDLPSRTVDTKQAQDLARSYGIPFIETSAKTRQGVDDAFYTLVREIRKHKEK
T3 sequence (P01116 with tags, fused parts or gaps isoform P01116-2 G12V): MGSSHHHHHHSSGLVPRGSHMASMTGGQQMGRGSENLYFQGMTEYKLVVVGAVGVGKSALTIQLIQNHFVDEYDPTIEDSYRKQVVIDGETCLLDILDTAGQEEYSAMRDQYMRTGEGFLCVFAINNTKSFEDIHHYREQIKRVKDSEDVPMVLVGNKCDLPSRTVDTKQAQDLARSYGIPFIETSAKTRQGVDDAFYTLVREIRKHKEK
T4 sequence (P01116 with tags, fused parts or gaps isoform P01116-2): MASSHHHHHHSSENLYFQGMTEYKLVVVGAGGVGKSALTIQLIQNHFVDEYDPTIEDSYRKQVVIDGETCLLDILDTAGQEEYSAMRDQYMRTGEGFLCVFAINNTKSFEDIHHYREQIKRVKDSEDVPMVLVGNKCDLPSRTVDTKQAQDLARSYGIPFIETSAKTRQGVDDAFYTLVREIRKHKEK
T2 sequence (P01116 with tags, fused parts or gaps isoform P01116-2 G12D): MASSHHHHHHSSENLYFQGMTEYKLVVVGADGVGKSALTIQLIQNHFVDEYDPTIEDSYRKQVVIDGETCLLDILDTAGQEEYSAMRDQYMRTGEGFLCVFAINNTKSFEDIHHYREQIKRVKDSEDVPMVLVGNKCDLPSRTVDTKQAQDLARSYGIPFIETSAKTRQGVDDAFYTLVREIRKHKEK

Compound | IC50 [1] [nM] | IC50 [2] [nM] | IC50 [3] [nM] | IC50 [4] [nM] | IC50 (KRAS-WT) [nM] | IC50 [5] [nM] | IC50 (KRAS-G12D) [nM] | IC50 (KRAS-G12V) [nM] | IC50 (KRAS-G13D) [nM] | IC50 (MKN-1 cells) [nM] | IC50 (PANC08.13 cells) [nM] | IC50 (AsPC-1 cells) [nM] | IC50 (SW620 cells) [nM]
CC(=O)c1c(C(F)(F)F)cc2[nH]ncc2c1-c1nccc2c1sc1nc(OC[C@@]34CCCN3C[C@H](F)C4)nc(N3CCOC[C@@](C)(O)C3)c12 [Ex-59] | 183 | 71.9 | 125 | 112 | – | – | – | – | – | – | – | – | –
Cc1cc2[nH]ncc2c(-c2nccc3c2sc2nc(OC[C@@]45CCCN4C[C@H](F)C5)nc(N4C[C@H](O)C[C@H]4C)c23)c1C(F)(F)F [Ex-183, (3R,5R)-1-(2-(((2R,7aS)-2-fluorotetrahydro-1H-pyrrolizin-7a(5H)-yl)methoxy)-8-(6-methyl-5-(trifluoromethyl)-1H-indazol-4-yl)pyrido[4′,3′: 4,5]thieno[2,3-d]pyrimi-din-4-yl)-5-methylpyrrol-idin-3-ol] | 2880 | 2190 | 4640 | 2990 | – | – | – | – | – | – | – | – | –
Cc1cc2[nH]ncc2c(-c2nccc3c4c(N5CCOC[C@@](C)(O)C5)nc(OC[C@@]56CCCN5C[C@H](F)C6)nc4n(C)c23)c1C(F)F (single isomer, unassigned) [Ex-10] | – | – | – | – | 97.7 | 30.1 | 40.3 | 54 | 93.8 | 200 | 191 | 439 | 337
Cc1cc2[nH]ncc2c(-c2nccc3c2sc2nc(OC[C@@]45CCCN4C[C@H](F)C5)nc(N4CCOC[C@@](C)(O)C4)c23)c1C(F)(F)F [Ex-126, (6S)-4-(2-(((2R,7aS)-2-fluorotetrahydro-1H-pyrrolizin-7a(5H)-yl)methoxy)-8-(6-methyl-5-(trifluoromethyl)-1H-indazol-4-yl)pyrido[4′,3′:4,5]thieno[2,3-d]pyrimidin-4-yl)-6-methyl-1,4-oxazepan-6-ol] | – | – | – | – | 88.3 | 30.7 | 34.9 | 52.8 | 58.6 | 169 | 85.4 | 271 | 320
Cc1cc2[nH]ncc2c(-c2nccc3c4c(N5CCOC[C@@](C)(O)C5)nc(OC[C@]5(CN(C)C)CC5(F)F)nc4n(C)c23)c1C(F)F (single isomer, unassigned) [Ex-19] | – | – | – | – | 85.5 | 37.4 | 26.5 | 67.2 | 68.3 | 118 | 68.2 | 58.5 | 214
Cc1cc2[nH]ncc2c(-c2nccc3c4c(N5CCOC[C@@](C)(O)C5)nc(OC[C@@]56CCCN5C[C@H](F)C6)nc4n(C)c23)c1C(F)(F)F (single isomer, unassigned) [Ex-1] | – | – | – | – | 93.4 | 19.8 | 41.5 | 55.6 | 77.4 | 222 | 237 | 376 | 429
Cc1cc2[nH]ncc2c(-c2nccc3c2sc2nc(OC[C@@]45CCCN4C[C@H](F)C5)nc(N4CCOC[C@@](C)(O)C4)c23)c1C(F)F [Ex-129, (6S)-4-(8-(5-(di-fluoromethyl)-6-methyl-1H-indazol-4-yl)-2-(((2R,7aS)-2-fluorotetrahydro-1H-pyrrolizin-7a(5H)-yl)methoxy)-pyrido[4′,3′:4,5]thieno[2,3-d]pyr-imidin-4-yl)-6-meth-yl-1,4-oxazepan-6-ol] | – | – | – | – | 165 | 50 | 56.2 | 85 | 79 | 241 | 144 | 469 | 211
C[C@@]1(O)COCCN(c2nc(OC[C@@]34CCCN3C[C@H](F)C4)nc3sc4c(-c5c(C(F)(F)F)c(Cl)cc6[nH]ncc56)nccc4c23)C1 [Ex-40, (6S)-4-(8-(6-chloro-5-(trifluoromethyl)-1H-indazol-4-yl)-2-(((2R,7aS)-2-fluorotetrahydro-1H-pyrrolizin-7a(5H)-yl)methoxy)pyrido[4′,3′:4,5]thi-eno[2,3-d]pyrimidin-4-yl)-6-methyl-1,4-oxazepan-6-ol] | – | – | – | – | 138 | 34.4 | 61.5 | 83.4 | 52.4 | 159 | 114 | 294 | 124
CCOc1c(C)cc2[nH]ncc2c1-c1nccc2c1sc1nc(OC[C@@]34CCCN3C[C@H](F)C4)nc(N3CCOC[C@@](C)(O)C3)c12 [Ex-38, (6S)-4-(8-(5-ethoxy-6-methyl-1H-indazol-4-yl)-2-(((2R,7aS)-2-fluorotetrahydro-1H-pyrrolizin-7a(5H)-yl)methoxy)pyrido[4′,3′:4,5]thieno[2,3-d]pyrimidin-4-yl)-6-methyl-1,4-oxazepan-6-ol] | – | – | – | – | 239 | 36 | 96.6 | 186 | 123 | 197 | 122 | 395 | 277
C=Cc1c(C)cc2[nH]ncc2c1-c1nccc2c1sc1nc(OC[C@@]34CCCN3C[C@H](F)C4)nc(N3CCOC[C@@](C)(O)C3)c12 [Ex-35, (6S)-4-(2-(((2R,7aS)-2-fluorotetrahydro-1H-pyrrolizin-7a(5H)-yl)methoxy)-8-(6-methyl-5-vinyl-1H-indazol-4-yl)pyrido[4′,3′:4,5]thieno[2,3-d]pyrimidin-4-yl)-6-methyl-1,4-oxazepan-6-ol] | – | – | – | – | 66.7 | 29.2 | 31.9 | 73.7 | 47.1 | 121 | 73.5 | 264 | 172
